# Assay results reported in US9873702B2, “Heterocyclic compounds as biogenic amine transport modulators” (Southern Research Institute, priority 2014, dated 2018).
# What was measured:
# [1] = target: dopamine transporter (DAT) (Rattus norvegicus, UniProt P23977); assay: Dopamine reuptake ([^3H]dopamine uptake) inhibition in rat brain synaptosomes; conditions: for IC50: DA Uptake EC50 (nM ± SD), rat caudate synaptosomes, 5 nM [^3H]dopamine, 15 min, 25° C., three experiments pooled; for Emax: read-out: DA Uptake Emax (% I ± SD)
# Sequence of dopamine transporter (DAT) (P23977 whole entry): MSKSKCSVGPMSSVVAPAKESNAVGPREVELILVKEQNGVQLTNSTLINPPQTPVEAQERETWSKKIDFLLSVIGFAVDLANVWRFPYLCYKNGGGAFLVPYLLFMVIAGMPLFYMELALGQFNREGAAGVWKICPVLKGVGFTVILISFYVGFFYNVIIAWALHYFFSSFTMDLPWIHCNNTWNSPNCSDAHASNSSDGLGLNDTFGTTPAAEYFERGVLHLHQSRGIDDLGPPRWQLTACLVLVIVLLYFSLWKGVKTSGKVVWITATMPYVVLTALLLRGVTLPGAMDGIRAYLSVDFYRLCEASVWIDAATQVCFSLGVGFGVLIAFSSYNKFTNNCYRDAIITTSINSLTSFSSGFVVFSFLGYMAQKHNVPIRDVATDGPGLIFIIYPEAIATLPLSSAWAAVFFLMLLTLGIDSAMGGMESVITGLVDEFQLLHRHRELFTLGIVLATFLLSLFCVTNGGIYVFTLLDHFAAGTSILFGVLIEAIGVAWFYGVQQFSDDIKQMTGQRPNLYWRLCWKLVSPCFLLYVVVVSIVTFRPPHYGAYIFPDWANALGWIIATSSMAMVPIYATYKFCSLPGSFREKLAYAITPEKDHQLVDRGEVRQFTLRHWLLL
Structure (SMILES),IC50 [1] [nM],Emax [1] [%],melting point [°C]
"Cn1ccc2cc(-c3nc(NCC(c4ccccc4)c4ccccc4)c4ccccc4n3)ccc21 [compound 77, N-(2,2-Diphenylethyl)-2-(1-Methyl-1H-Indol-5-yl)Quinazolin-4-Amine]",28 ± 5,69 ± 2,222
"c1ccc(C(CNc2nc(-n3ccnc3)nc3ccccc23)c2ccccc2)cc1 [compound 48, N-(2,2-Diphenylethyl)-2-(1H-Imidazol-1-yl)Quinazolin-4-Amine]",38 ± 5,73 ± 2,231
"Cn1cnc2ccc(-c3nc(NCC(c4ccccc4)c4ccccc4)c4ccccc4n3)cc21 [compound 64, N-(2,2-Diphenylethyl)-2-(1-Methyl-1H-Benzo [D]Imidazol-6-yl)Quinazolin-4-Amine]",19 ± 3,75 ± 2,248
"c1ccc(C(CNc2nc(-n3cccn3)nc3ccccc23)c2ccccc2)cc1 [compound 51, N-(2,2-Diphenylethyl)-2-(1H-Pyrazol-1-yl)Quinazolin-4-Amine]",510,< 100,191
"COc1ccc2nc(-c3cccnc3)nc(NCC(c3ccccc3)c3ccccc3)c2c1 [compound 59, N-(2,2-Diphenylethyl)-6-Methoxy-2-(Pyridin-3-yl)Quinazolin-4-Amine]",529 ± 146,56 ± 3,77
"c1ccc(C(Nc2nc(-c3ccsc3)nc3ccccc23)c2ccccc2)cc1 [compound 11, N-Benzhydryl-2-(thiophen-3-yl)quinazolin-4-amine]",770,100,152 to 155
"c1ccc(C(CNc2nc(-c3ccc4[nH]ccc4c3)nc3ccccc23)c2cccc(-c3ccc4[nH]ccc4c3)n2)cc1 (stereo not drawn) [compound 58, N-(2-(6-(1H-Indol-5-yl)Pyridin-2-yl)-2-Phenylethyl)-2-(1H-Indol-5-yl)Quinazolin-4-Amine]",478 ± 154,65 ± 5,151
"COc1ccc2nc(-c3ccc4[nH]ccc4c3)nc(NCC(c3ccccc3)c3ccccc3)c2c1 [compound 61, N-(2,2-Diphenylethyl)-2-(1H-Indol-5-yl)-6-Methoxyquinazolin-4-Amine]",115 ± 20,80 ± 3,112
"Cc1nc2ccc(-c3nc(NCC(c4ccccc4)c4ccccc4)c4ccccc4n3)cn2c1C [compound 91, 2-(2,3-Dimethylimidazo[1,2-A]Pyridin-6-yl)-N-(2,2-Diphenylethyl)Quinazolin-4-Amine]",25 ± 3,72 ± 2,232
"CS(=O)(=O)Nc1ccc(-c2nc(NCC(c3ccccc3)c3ccccc3)c3ccccc3n2)cn1 [compound 138, N-(5-(4-((2,2-Diphenylethyl)Amino)Quinazolin-2-yl)Pyridin-2-yl)Methanesulfonamide]",26 ± 3,63 ± 1,210
"c1ccc(CNc2ncc(-c3nc(NCC(c4ccccc4)c4ccccc4)c4ccccc4n3)cn2)cc1 [compound 46, 2-(2-(Benzylamino)Pyrimidin-5-yl)-N-(2,2-Diphenylethyl)Quinazolin-4-Amine]",544 ± 248,60 ± 6,184
"c1ccc(C(CNc2nc(-c3ccc4nccn4c3)nc3ccccc23)N2CCCC2)cc1 (stereo not drawn) [compound 121, 2-(Imidazo[1,2-A]Pyridin-6-yl)-N-(2-Phenyl-2-(Pyrrolidin-1-yl)Ethyl)Quinazolin-4-Amine]",170 ± 50,83 ± 5,205 to 207
"Nc1ncc(-c2nc(NCC(O)(c3ccccc3)c3ccccc3)c3ccccc3n2)cn1 [compound 97, 2-((2-(2-Aminopyrimidin-5-yl)Quinazolin-4-yl)Amino)-1,1-Diphenylethanol]",665 ± 150,90 ± 5,222
"CC(C)(C)OC(=O)N1CCCc2ccc(-c3nc(NCC(c4ccccc4)c4ccccc4)c4ccccc4n3)cc21 [compound 71, Tert-Butyl 7-(4-((2,2-Diphenylethyl)Amino)Quinazolin-2-yl)-3,4-Dihydroquinoline-1(2H)-Carboxylate]",890,< 100,89
"O=C1Cc2cc(-c3nc(NCC(c4ccccc4)c4ccccc4)c4ccccc4n3)ccc2N1 [compound 78, 5-(4-((2,2-Diphenylethyl)Amino)Quinazolin-2-yl)Indolin-2-One]",30 ± 5,77 ± 2,244
"c1ccc(C(CNc2nc(-c3ccc4cnccc4c3)nc3ccccc23)c2ccccc2)cc1 [compound 133, N-(2,2-Diphenylethyl)-2-(Isoquinolin-6-yl)Quinazolin-4-Amine]",194 ± 30,70 ± 2,242 to 244
"CN(C)Cc1c[nH]c2ccc(-c3nc(NCC(c4ccccc4)c4ccccc4)c4ccccc4n3)cc12 [compound 111, 2-(3-((Dimethylamino)methyl)-1H-Indol-5-yl)-N-(2,2-Diphenylethyl)Quinazolin-4-Amine]",381 ± 42,101 ± 2,182
"COc1cc2nc(-c3cncnc3)nc(NCC(c3ccccc3)c3ccccc3)c2cc1OC [compound 25, N-(2,2-Diphenylethyl)-6,7-Dimethoxy-2-(Pyrimidin-5-yl)Quinazolin-4-Amine]",1090,< 100,93
"COc1cc2nc(-c3cnc(N(C)C)nc3)nc(NCC(c3ccccc3)c3ccccc3)c2cc1OC [compound 23, 2-(2-(Dimethylamino)Pyrimidin-5-yl)-N-(2,2-Diphenylethyl)-6,7-Dimethoxyquinazolin-4-Amine]",720,100,92
"c1ccc(C(CNc2nc(-n3cnc4cncnc43)nc3ccccc23)c2ccccc2)cc1 [compound 90, N-(2,2-Diphenylethyl)-2-(9H-Purin-9-yl)Quinazolin-4-Amine]",94 ± 10,75 ± 2,264
"c1ccc(C(CCNc2nc(N3CCCCC3)nc3ccccc23)c2ccccc2)cc1 [compound 9, N-(3,3-Diphenylpropyl)-2-(piperidin-1-yl)quinazolin-4-amine]",140,100,160 to 164

# The next lines start with the values.
IC50 [1] [nM],Emax [1] [%],melting point [°C],Structure (SMILES)
56 ± 13,73 ± 3,144 to 146,"CS(=O)(=O)n1ccc2cc(-c3nc(NCC(c4ccccc4)c4ccccc4)c4ccccc4n3)ccc21 [compound 154, N-(2,2-Diphenylethyl)-2-(1-(Methylsulfonyl)-1H-Indol-5-yl)Quinazolin-4-Amine]"
42 ± 7,68 ± 2,190 to 192,"c1ccc(CCC(Nc2nc(-c3ccc4nccn4c3)nc3ccccc23)c2ccccc2)cc1 (stereo not drawn) [compound 166, N-(1,3-Diphenylpropyl)-2-(Imidazo[1,2-A]Pyridin-6-yl)Quinazolin-4-Amine]"
3.7 ± 1.5,87 ± 6,166 to 168,"c1ccc(C(CNc2nc(N3CCc4[nH]ccc4C3)nc3ccccc23)c2ccccc2)cc1 [compound 163, 2-(6,7-Dihydro-1H-Pyrrolo[3,2-C]Pyridin-5(4H)-yl)-N-(2,2-Diphenylethyl)Quinazolin-4-Amine]"
205 ± 32,67 ± 2,214,"CS(=O)(=O)Nc1ncc(-c2nc(NCC(c3ccccc3)c3ccccc3)c3ccccc3n2)cn1 [compound 139, N-(5-(4-((2,2-Diphenylethyl)Amino)Quinazolin-2-yl)Pyrimidin-2-yl)Methanesulfonamide]"
533 ± 89,67 ± 2,224 to 226,"c1ccc(C(CNc2nc(-c3ccc4scnc4c3)nc3ccccc23)c2ccccc2)cc1 [compound 145, 2-(Benzo[D]Thiazol-5-yl)-N-(2,2-Diphenylethyl)Quinazolin-4-amine]"
15 ± 3,73 ± 2,189 to 191,"c1ccc(CC(CNc2nc(-c3cnc4nccn4c3)nc3ccccc23)c2ccccc2)cc1 (stereo not drawn) [compound 142, N-(2,3-Diphenylpropyl)-2-(Imidazo[1,2-A]Pyrimidin-6-yl)Quinazolin-4-Amine]"
502 ± 84,73 ± 3,104 to 106,"c1ccc(C2CN(c3nc(-c4cnc5nccn5c4)nc4ccccc34)Cc3ccccc32)cc1 (stereo not drawn) [compound 143, 2-(Imidazo[1,2-A]Pyrimidin-6-yl)-4-(4-Phenyl-3,4-Dihydroisoquinolin-2(1H)-yl)Quinazoline]"
15 ± 3,74 ± 2,170 to 175,"Cc1cc2nccn2cc1-c1nc(NCC(c2ccncc2)c2ccncc2)c2ccccc2n1 [compound 157, N-(2,2-Di(Pyridin-4-yl)Ethyl)-2-(7-Methylimidazo[1,2-A]Pyridin-6-yl)Quinazolin-4-Amine]"
168 ± 22,51 ± 1,246 to 247,"c1ccc(CCNc2nc(-c3ccc4nccn4c3)nc3ccccc23)cc1 [compound 161, 2-(Imidazo[1,2-A]Pyridin-6-yl)-N-Phenethylquinazolin-4-Amine]"
85 ± 5,72 ± 1,234 to 236,"Cc1cc2nccn2cc1-c1nc(NCCc2ccncc2)c2ccccc2n1 [compound 181, 2-(7-Methylimidazo[1,2-A]Pyridin-6-yl)-N-(2-(Pyridin-4-yl)Ethyl)Quinazolin-4-Amine]"
2.2 ± 0.4,62 ± 2,196 to 198,"Cc1cc2nccn2cc1-c1nc(NC[C@H](c2ccccc2)n2cccc2)c2ccccc2n1 [compound 162, (S)-2-(7-Methylimidazo[1,2-A]Pyridin-6-yl)-N-(2-Phenyl-2-(1H-Pyrrol-1-yl)Ethyl)Quinazolin-4-Amine]"
106 ± 19,68 ± 2,286 to 288,"c1ccc(OC(CNc2nc(-c3ccc4nccn4c3)nc3ccccc23)c2ccccc2)cc1 (stereo not drawn) [compound 175, 2-(Imidazo[1,2-A]Pyridin-6-yl)-N-(2-Phenoxy-2-Phenylethyl)Quinazolin-4-Amine]"
